Test results taken from the NIST ThermoML archive (doi:10.1016/j.jct.2013.10.025).
Numbers after ± are expanded uncertainties.

Assay: xn = mol fraction of the nth substance listed
Conditions: 101 kPa, Liquid; for viscosity: Capillary tube (Ostwald / Ubbelohde) method; for speed of sound: Sing-around technique in a fixed-path interferometer; for mass density: Vibrating tube method

CCCCCCO [hexan-1-ol] + C1CCOC1
Conditions | mass density [kg/m3] | speed of sound [m/s] | viscosity [mPa·s]
298.15 K, x2 = 0.0538 | 817.624 ± 0.24 | 1301.1 ± 1.5 | 3.778 ± 0.36
298.15 K, x2 = 0.1144 | 820.377 ± 0.24 | 1298.8 ± 1.5 | 3.16 ± 0.36
298.15 K, x2 = 0.1511 | 822.105 ± 0.24 | 1297 ± 1.5 | 2.887 ± 0.36
298.15 K, x2 = 0.2009 | 824.537 ± 0.24 | 1295 ± 1.5 | 2.477 ± 0.36
298.15 K, x2 = 0.256 | 827.327 ± 0.24 | 1292.7 ± 1.5 | 2.133 ± 0.36
298.15 K, x2 = 0.3156 | 830.492 ± 0.24 | 1291 ± 1.5 | 1.855 ± 0.36
298.15 K, x2 = 0.4199 | 836.41 ± 0.24 | 1287.7 ± 1.5 | 1.453 ± 0.36
298.15 K, x2 = 0.5013 | 841.407 ± 0.24 | 1285.1 ± 1.5 | 1.199 ± 0.36
298.15 K, x2 = 0.6029 | 848.183 ± 0.24 | 1282.2 ± 1.5 | 0.986 ± 0.36
298.15 K, x2 = 0.7071 | 855.823 ± 0.24 | 1279.3 ± 1.5 | 0.786 ± 0.36
298.15 K, x2 = 0.8042 | 863.667 ± 0.24 | 1277.1 ± 1.5 | 0.661
298.15 K, x2 = 0.9057 | 872.745 ± 0.23 | 1276.4 ± 1.5 | 0.559
303.15 K, x2 = 0.0538 | 813.958 ± 0.24 | 1284.1 ± 1.5 | 3.22 ± 0.36
303.15 K, x2 = 0.1144 | 816.633 ± 0.24 | 1281.5 ± 1.5 | 2.737 ± 0.36
303.15 K, x2 = 0.1511 | 818.311 ± 0.24 | 1279.5 ± 1.5 | 2.516 ± 0.36
303.15 K, x2 = 0.2009 | 820.671 ± 0.24 | 1277.3 ± 1.5 | 2.148 ± 0.36
303.15 K, x2 = 0.256 | 823.388 ± 0.24 | 1275.1 ± 1.5 | 1.901 ± 0.36
303.15 K, x2 = 0.3156 | 826.467 ± 0.24 | 1272.8 ± 1.5 | 1.633 ± 0.36
303.15 K, x2 = 0.4199 | 832.217 ± 0.24 | 1269 ± 1.5 | 1.325 ± 0.36
303.15 K, x2 = 0.5013 | 837.071 ± 0.24 | 1265.9 ± 1.5 | 1.107 ± 0.36
303.15 K, x2 = 0.6029 | 843.655 ± 0.24 | 1262.2 ± 1.5 | 0.904 ± 0.36
303.15 K, x2 = 0.7071 | 851.067 ± 0.24 | 1258.5 ± 1.5 | 0.719
303.15 K, x2 = 0.8042 | 858.694 ± 0.24 | 1255.6 ± 1.5 | 0.619
303.15 K, x2 = 0.9057 | 867.506 ± 0.23 | 1254 ± 1.5 | 0.536
308.15 K, x2 = 0.0538 | 810.268 ± 0.24 | 1267.1 ± 1.5 | 2.728 ± 0.36
308.15 K, x2 = 0.1144 | 812.863 ± 0.24 | 1264 ± 1.5 | 2.373 ± 0.36
308.15 K, x2 = 0.1511 | 814.495 ± 0.24 | 1261.9 ± 1.5 | 2.13 ± 0.36
308.15 K, x2 = 0.2009 | 816.788 ± 0.24 | 1259.4 ± 1.5 | 1.886 ± 0.36
308.15 K, x2 = 0.256 | 819.426 ± 0.24 | 1257.1 ± 1.5 | 1.598 ± 0.36
308.15 K, x2 = 0.3156 | 822.411 ± 0.24 | 1254.3 ± 1.5 | 1.422 ± 0.36
308.15 K, x2 = 0.4199 | 827.995 ± 0.24 | 1249.8 ± 1.5 | 1.127 ± 0.36
308.15 K, x2 = 0.5013 | 832.704 ± 0.24 | 1246 ± 1.5 | 0.95 ± 0.36
308.15 K, x2 = 0.6029 | 839.095 ± 0.24 | 1241.4 ± 1.5 | 0.796 ± 0.36
308.15 K, x2 = 0.7071 | 846.295 ± 0.24 | 1236.7 ± 1.5 | 0.64
308.15 K, x2 = 0.8042 | 853.69 ± 0.24 | 1232.5 ± 1.5 | 0.566
308.15 K, x2 = 0.9057 | 862.242 ± 0.24 | 1230 ± 1.5 | 0.47
313.15 K, x2 = 0.0538 | 806.544 ± 0.24 | 1250.3 ± 1.5 | –
313.15 K, x2 = 0.1144 | 809.062 ± 0.24 | 1246.9 ± 1.5 | –
313.15 K, x2 = 0.1511 | 810.645 ± 0.24 | 1244.7 ± 1.5 | –
313.15 K, x2 = 0.2009 | 812.872 ± 0.24 | 1242.7 ± 1.5 | –
313.15 K, x2 = 0.256 | 815.429 ± 0.24 | 1239.8 ± 1.5 | –
313.15 K, x2 = 0.3156 | 818.321 ± 0.24 | 1236.7 ± 1.5 | –
313.15 K, x2 = 0.4199 | 823.739 ± 0.24 | 1231.7 ± 1.5 | –
313.15 K, x2 = 0.5013 | 828.306 ± 0.24 | 1227.5 ± 1.5 | –
313.15 K, x2 = 0.6029 | 834.502 ± 0.24 | 1222.5 ± 1.5 | –
313.15 K, x2 = 0.7071 | 841.483 ± 0.24 | 1217 ± 1.5 | –
313.15 K, x2 = 0.8042 | 848.648 ± 0.24 | 1212.4 ± 1.5 | –
313.15 K, x2 = 0.9057 | 856.935 ± 0.24 | 1209 ± 1.5 | –
